The text below walks through data of the SangsterLogP compilation.

The series in a line: method code SF-HPLC, from DOI: 10.1002/ps.2780400103.

The logP is a log measure of how a compound divides between an organic and an aqueous phase. Higher therefore signals higher lipophilicity. For `COC(=O)c1ccc(OCC(OC(=S)n2ccnc2)C(C)(C)C)cc1` (configuration not stated), the logP was 4.77.
The result for `CCc1ccc(OCC(OC(=O)n2ccnc2)C(C)(C)C)cc1` (configuration not stated) reads 4.1; that for `CC(C)(C)C(COc1ccc(Br)cc1)OC(=S)n1ccnc1` (configuration not stated), 5.11; that for `CC(C)(C)C(COc1ccc(F)cc1)OC(=O)n1ccnc1` (configuration not stated), 3.68.
On to `CCCOc1ccc(OCC(OC(=O)n2ccnc2)C(C)(C)C)cc1` (configuration not stated), for which the logP was 4.1.
Consider `CC(C)(C)C(COc1ccc(Br)cc1)OC(=O)n1ccnc1` (configuration not stated), for which the logP came to 4.37.
Consider `CC(C)(C)C(COc1ccccc1)OC(=O)n1ccnc1` (configuration not stated), for which the logP was 3.58.
`CC(C)(C)C(COc1ccc(-c2ccccc2)cc1)OC(=S)n1ccnc1` (configuration not stated) had a logP of 6.06.
`CC(C)(C)C(COc1ccc(C(F)(F)F)cc1)OC(=O)n1ccnc1` (configuration not stated): the logP came out at 4.15.
In the case of `CCOc1ccc(OCC(OC(=S)n2ccnc2)C(C)(C)C)cc1` (configuration not stated), the logP is 4.58.
For `CCCCc1ccc(OCC(OC(=O)n2ccnc2)C(C)(C)C)cc1` (configuration not stated), the logP was determined as 4.97.
Under `CCc1ccc(OCC(OC(=S)n2ccnc2)C(C)(C)C)cc1` (configuration not stated) stands 5.09.
Under `COC(=O)c1ccc(OCC(OC(=O)n2ccnc2)C(C)(C)C)cc1` (configuration not stated) stands 3.59; under `COc1ccc(OCC(OC(=O)n2ccnc2)C(C)(C)C)cc1` (configuration not stated), 3.46.
Under `CC(C)Oc1ccc(OCC(OC(=O)n2ccnc2)C(C)(C)C)cc1` (configuration not stated) stands 4.08; under `CC(C)(C)C(COc1ccc(I)cc1)OC(=O)n1ccnc1` (configuration not stated), 4.3.
In turn, `CC(C)(C)C(COc1ccc([N+](=O)[O-])cc1)OC(=O)n1ccnc1` (configuration not stated) registered a logP of 3.35.
On to `CCOC(=O)c1ccc(OCC(OC(=O)n2ccnc2)C(C)(C)C)cc1` (configuration not stated), for which the logP is 4.12.
The result for `CC(C)(C)C(COc1ccc(F)cc1)OC(=S)n1ccnc1` (configuration not stated) reads 4.37.
Regarding `CCCc1ccc(OCC(OC(=S)n2ccnc2)C(C)(C)C)cc1` (configuration not stated), the logP was found to be 5.77.
Compound `CC(C)(C)c1ccc(OCC(OC(=O)n2ccnc2)C(C)(C)C)cc1` (configuration not stated) registered a logP of 4.82.
Compound `CC(C)c1ccc(OCC(OC(=S)n2ccnc2)C(C)(C)C)cc1` (configuration not stated) showed a logP of 5.21.
Consider `CC(C)(C)C(COc1ccccc1)OC(=S)n1ccnc1` (configuration not stated), for which the logP is 4.27.
The result for `CC(C)(C)C(COc1ccc(S(C)(=O)=O)cc1)OC(=O)n1ccnc1` (configuration not stated) reads 2.59; that for `COc1ccc(OCC(OC(=S)n2ccnc2)C(C)(C)C)cc1` (configuration not stated), 4.31.
In the case of `CCCCOc1ccc(OCC(OC(=O)n2ccnc2)C(C)(C)C)cc1` (configuration not stated), the logP came to 4.29.
`CC(C)(C)C(COc1ccc(Cl)cc1)OC(=S)n1ccnc1` (configuration not stated) registered a logP of 4.96.
Compound `CC(C)(C)C(COc1ccc(C#N)cc1)OC(=O)n1ccnc1` (configuration not stated) returned a logP of 3.15.
`CCCOc1ccc(OCC(OC(=S)n2ccnc2)C(C)(C)C)cc1` (configuration not stated) came in with a logP of 5.03.
The result for `CCCCCc1ccc(OCC(OC(=O)n2ccnc2)C(C)(C)C)cc1` (configuration not stated) reads 5.26.
With `CC(C)c1ccc(OCC(OC(=O)n2ccnc2)C(C)(C)C)cc1` (configuration not stated), the logP worked out at 4.77.
The result for `CCOc1ccc(OCC(OC(=O)n2ccnc2)C(C)(C)C)cc1` (configuration not stated) reads 3.86; that for `Cc1ccc(OCC(OC(=S)n2ccnc2)C(C)(C)C)cc1` (configuration not stated), 4.66.
As to `CC(C)(C)C(COc1ccc(Cl)cc1)OC(=O)n1ccnc1` (configuration not stated), the logP was 4.19.
Under `CC(C)(C)C(COc1ccc(-c2ccccc2)cc1)OC(=O)n1ccnc1` (configuration not stated) stands 4.56.
`CCCc1ccc(OCC(OC(=O)n2ccnc2)C(C)(C)C)cc1` (configuration not stated) yielded a logP of 4.73.
Under `CSc1ccc(OCC(OC(=O)n2ccnc2)C(C)(C)C)cc1` (configuration not stated) stands 4.03.
